Data on 25 molecules can be found in patent publication US9416141B2 (University of Washington through its Center for …, priority 2012, dated 2016).

pEC50: −log10 of the molar value. Counter-ions that a name gives are not always drawn.

For this experiment, the system named is hair cells. As to the kind of experiment: Hair cell toxicity assay in zebrafish (neomycin-induced hair cell death, DASPEI staining of neuromasts). The conditions noted are these: Danio rerio; for Emax at 8.3 µM: maximum observed @ 8.3 μM test compound; for pEC50: zebrafish larvae 5-7 dpf, 1 h pre-treatment, then 200 micromolar neomycin + test compound 30 min, read-out: HC50 (concentration that would produce 50% hair cell survival); for Emax at 25 µM: maximum observed @ 25 μM test compound; for Emax at 2.8 µM: maximum observed @ 2.8 μM test compound. The class given is in vivo. In outline: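 Zebrafish larvae 5-7 dpf pre-treated 1 h with compound (0.010-25 μM), then 30 min with 200 μM neomycin plus compound. DASPEI stained 10 neuromasts per fish, scored 0-2 (total 0-20), normalised to vehicle controls as % hair cell survival. HC50 linearly interpolated if survival reached ≥50%; HCmax is maximum survival.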

The mark [1] stands for this setting: 200 micromolar neomycin, read-out: Max HC Protection (HCmax, % hair cell survival).

For `C[N+]1(CC2CCC2)CCc2c(sc(NC(=O)Nc3ccc(Cl)cc3)c2C(N)=O)C1` (stereo not drawn) [Example 145, 3-Carbamoyl-2-[3-(4-chlorophenyl)ureido]-6-(cyclobutylmethyl)-6-methyl-4,5,6,7-tetrahydrothieno[2,3-c]pyridin-6-ium iodide], the pEC50 is over 6.00. Moreover, under setting [1], the Emax at 8.3 µM stood at 95%.

With `NC(=O)c1c(NC(=O)Nc2ccc(Cl)cc2)sc2c1CC[N+]1(CCOCC1)C2` [Example 146, 3′-Carbamoyl-2′-[3-(4-chlorophenyl)ureido]-5′,7′-dihydro-4′H-spiro[morpholine-4,6′-thieno[2,3-c]pyridin]-4-ium iodide], the pEC50 is 5.00 to 6.00. The Emax at 25 µM under setting [1] amounted to 96%.

Take `CC(C)(C)OC(=O)C[N+]1(C)CCc2c(sc(NC(=O)Nc3ccc(Cl)cc3)c2C(N)=O)C1` (stereo not drawn) [Example 147, 6-(2-tert-Butoxy-2-oxoethyl)-3-carbamoyl-2-[3-(4-chlorophenyl)ureido]-6-methyl-4,5,6,7-tetrahydrothieno[2,3-c]pyridin-6-ium iodide]: the pEC50 was over 6.00. In addition, the Emax at 2.8 µM under setting [1] is 90%.

Regarding `CC[N+]1(C)CCc2c(sc(NC(=O)NCc3ccc(Cl)cc3)c2C(N)=O)C1` (stereo not drawn) [Example 148, 3-Carbamoyl-2-[3-(4-chlorobenzyl)ureido]-6-ethyl-6-methyl-4,5,6,7-tetrahydrothieno[2,3-c]pyridin-6-ium iodide], the pEC50 is under 5.00. Also, the Emax at 25 µM under setting [1] is 51%.

With `C[N+]1(CCCC(=O)O)CCc2c(sc(NC(=O)Nc3ccc(Cl)cc3)c2C(N)=O)C1` (stereo not drawn) [Example 149, 3-Carbamoyl-6-(3-carboxypropyl)-2-[3-(4-chlorophenyl)ureido]-6-methyl-4,5,6,7-tetrahydrothieno[2,3-c]pyridin-6-ium trifluoroacetate], the Emax at 25 µM under setting [1] was 24%.

Take `CC[N+]1(C)CCc2c(sc(NC(=O)Nc3ccc(C#N)cc3)c2C(N)=O)C1` (stereo not drawn) [Example 150, 3-Carbamoyl-2-[3-(4-cyanophenyl)ureido]-6-ethyl-6-methyl-4,5,6,7-tetrahydrothieno[2,3-c]pyridin-6-ium iodide]: the Emax at 25 µM under setting [1] worked out at 43%.

With `CC(C)(C)OC(=O)CC[N+]1(C)CCc2c(sc(NC(=O)Nc3ccc(Cl)cc3)c2C(N)=O)C1` (stereo not drawn) [Example 151, 6-(3-tert-Butoxy-3-oxopropyl)-3-carbamoyl-2-[3-(4-chlorophenyl)ureido]-6-methyl-4,5,6,7-tetrahydrothieno[2,3-c]pyridin-6-ium iodide], the pEC50 was over 6.00. The Emax at 2.8 µM under setting [1] is 105%.

Regarding `C[N+]1(CC2CCCCC2)CCc2c(sc(NC(=O)Nc3ccc(Cl)cc3)c2C(N)=O)C1` (stereo not drawn) [Example 152, 3-Carbamoyl-2-[3-(4-chlorophenyl)ureido]-6-(cyclohexylmethyl)-6-methyl-4,5,6,7-tetrahydrothieno[2,3-c]pyridin-6-ium iodide], the pEC50 was over 6.00. The Emax at 0.9 µM (maximum observed @ 0.9 μM test compound, 200 micromolar neomycin, read-out: Max HC Protection (HCmax, % hair cell survival)) came to 78%.

As for `C[N+]1(CC2CCCC2)CCc2c(sc(NC(=O)Nc3ccc(Cl)cc3)c2C(N)=O)C1` (stereo not drawn) [Example 153, 3-Carbamoyl-2-[3-(4-chlorophenyl)ureido]-6-(cyclopentylmethyl)-6-methyl-4,5,6,7-tetrahydrothieno[2,3-c]pyridin-6-ium iodide], the pEC50 is over 6.00. The Emax at 8.3 µM under setting [1] worked out at 98%.

As for `CC(C)(C)OC(=O)CCC[N+]1(C)CCc2c(sc(NC(=O)Nc3ccc(Cl)cc3)c2C(N)=O)C1` (stereo not drawn) [Example 154, 6-(4-tert-Butoxy-4-oxobutyl)-3-carbamoyl-2-[3-(4-chlorophenyl)ureido]-6-methyl-4,5,6,7-tetrahydrothieno[2,3-c]pyridin-6-ium trifluoroacetate], the pEC50 is over 6.00. Further, the Emax at 2.8 µM under setting [1] turned out to be 96%.

`CC(C)(C)OC(=O)CCCC[N+]1(C)CCc2c(sc(NC(=O)Nc3ccc(Cl)cc3)c2C(N)=O)C1` (stereo not drawn) [Example 155, 6-(5-tert-Butoxy-5-oxopentyl)-3-carbamoyl-2-[3-(4-chlorophenyl)ureido]-6-methyl-4,5,6,7-tetrahydrothieno[2,3-c]pyridin-6-ium iodide]: the pEC50 was over 6.00. For the same molecule, the Emax at 2.8 µM under setting [1] is 75%.

In the case of `CC(C)(C)OC(=O)CCCCC[N+]1(C)CCc2c(sc(NC(=O)Nc3ccc(Cl)cc3)c2C(N)=O)C1` (stereo not drawn) [Example 156, 6-(6-tert-Butoxy-6-oxohexyl)-3-carbamoyl-2-[3-(4-chlorophenyl)ureido]-6-methyl-4,5,6,7-tetrahydrothieno[2,3-c]pyridin-6-ium iodide], the pEC50 was over 6.00. In addition, the Emax at 2.8 µM under setting [1] stood at 96%.

In the case of `C[N+]1(CCC(N)=O)CCc2c(sc(NC(=O)Nc3ccc(Cl)cc3)c2C(N)=O)C1` (stereo not drawn) [Example 157, 6-(3-Amino-3-oxopropyl)-3-carbamoyl-2-[3-(4-chlorophenyl)ureido]-6-methyl-4,5,6,7-tetrahydrothieno[2,3-c]pyridin-6-ium iodide], the pEC50 is 5.00 to 6.00. The Emax at 25 µM under setting [1] is 94%.

For the molecule `COC(=O)CCC[N+]1(C)CCc2c(sc(NC(=O)Nc3ccc(Cl)cc3)c2C(N)=O)C1` (stereo not drawn) [Example 158, 3-Carbamoyl-2-[3-(4-chlorophenyl)ureido]-6-(4-methoxy-4-oxobutyl)-6-methyl-4,5,6,7-tetrahydrothieno[2,3-c]pyridin-6-ium iodide], the pEC50 is 5.00 to 6.00. In addition, the Emax at 25 µM under setting [1] turned out to be 80%.

Take `CC(C)OC(=O)CC[N+]1(C)CCc2c(sc(NC(=O)Nc3ccc(Cl)cc3)c2C(N)=O)C1` (stereo not drawn) [Example 159, 3-Carbamoyl-2-[3-(4-chlorophenyl)ureido]-6-(3-isopropoxy-3-oxopropyl)-6-methyl-4,5,6,7-tetrahydrothieno[2,3-c]pyridin-6-ium iodide]: the pEC50 is over 6.00. For the same molecule, the Emax at 2.8 µM under setting [1] is 84%.

As to `CCOC(=O)CC[N+]1(C)CCc2c(sc(NC(=O)Nc3ccc(Cl)cc3)c2C(N)=O)C1` (stereo not drawn) [Example 160, 3-Carbamoyl-2-[3-(4-chlorophenyl)ureido]-6-(3-ethoxy-3-oxopropyl)-6-methyl-4,5,6,7-tetrahydrothieno[2,3-c]pyridin-6-ium chloride iodide], the pEC50 is 5.00 to 6.00. The Emax at 2.8 µM under setting [1] is 70%.

As for `CCOC(=O)CCC[N+]1(C)CCc2c(sc(NC(=O)Nc3ccc(Cl)cc3)c2C(N)=O)C1` (stereo not drawn) [Example 161, 3-Carbamoyl-2-[3-(4-chlorophenyl)ureido]-6-(4-ethoxy-4-oxobutyl)-6-methyl-4,5,6,7-tetrahydrothieno[2,3-c]pyridin-6-ium iodide], the pEC50 was over 6.00. For the same molecule, under setting [1], the Emax at 2.8 µM came to 87%.

As to `C[N+]1(C)CCc2c(sc(NC(=O)Nc3ccc(Cl)cc3)c2C(N)=O)C1` [Example 162, 3-Carbamoyl-2-[3-(4-chlorophenyl)ureido]-6,6-dimethyl-4,5,6,7-tetrahydrothieno[2,3-c]pyridin-6-ium trifluoroacetate], under setting [1], the Emax at 2.8 µM came out at 36%.

On to `CC(C)(C)OC(=O)C1CC([N+]2(C)CCc3c(sc(NC(=O)Nc4ccc(Cl)cc4)c3C(N)=O)C2)C1` (stereo not drawn) [Example 163, 6-[3-(tert-Butoxycarbonyl)cyclobutyl]-3-carbamoyl-2-[3-(4-chlorophenyl)ureido]-6-methyl-4,5,6,7-tetrahydrothieno[2,3-c]pyridin-6-ium iodide], for which the pEC50 was over 6.00. Also, the Emax at 8.3 µM under setting [1] was 88%.

In the case of `CC(C)NC(=O)CC[N+]1(C)CCc2c(sc(NC(=O)Nc3ccc(Cl)cc3)c2C(N)=O)C1` (stereo not drawn) [Example 164, 3-Carbamoyl-2-[3-(4-chlorophenyl)ureido]-6-[3-(isopropylamino)-3-oxopropyl]-6-methyl-4,5,6,7-tetrahydrothieno[2,3-c]pyridin-6-ium trifluoroacetate], the pEC50 was 5.00 to 6.00. For the same molecule, under setting [1], the Emax at 2.8 µM is 60%.

With `CN(C)C(=O)CCC[N+]1(C)CCc2c(sc(NC(=O)Nc3ccc(Cl)cc3)c2C(N)=O)C1` (stereo not drawn) [Example 165, 3-Carbamoyl-2-[3-(4-chlorophenyl)ureido]-6-[4-(dimethylamino)-4-oxobutyl]-6-methyl-4,5,6,7-tetrahydrothieno[2,3-c]pyridin-6-ium trifluoroacetate], the pEC50 is 5.00 to 6.00. Further, the Emax at 2.8 µM under setting [1] amounted to 52%.

With `CC(C)NC(=O)CCC[N+]1(C)CCc2c(sc(NC(=O)Nc3ccc(Cl)cc3)c2C(N)=O)C1` (stereo not drawn) [Example 166, 3-Carbamoyl-2-[3-(4-chlorophenyl)ureido]-6-[4-(isopropylamino)-4-oxobutyl]-6-methyl-4,5,6,7-tetrahydrothieno[2,3-c]pyridin-6-ium trifluoroacetate], the pEC50 is 5.00 to 6.00. Further, under setting [1], the Emax at 2.8 µM came out at 63%.

For `C[N+]1(CCCC(N)=O)CCc2c(sc(NC(=O)Nc3ccc(Cl)cc3)c2C(N)=O)C1` (stereo not drawn) [Example 167, 6-(4-Amino-4-oxobutyl)-3-carbamoyl-2-[3-(4-chlorophenyl)ureido]-6-methyl-4,5,6,7-tetrahydrothieno[2,3-c]pyridin-6-ium trifluoroacetate], the Emax at 2.8 µM under setting [1] turned out to be 21%.

With `CC[N+]1(C)CCc2c(sc(NC(=O)Nc3ccc(C(=O)c4ccccc4)cc3)c2C(N)=O)C1` (stereo not drawn) [Example 168, 2-[3-(4-Benzoylphenyl)ureido]-3-carbamoyl-6-ethyl-6-methyl-4,5,6,7-tetrahydrothieno[2,3-c]pyridin-6-ium iodide], the Emax at 2.8 µM under setting [1] was determined as 20%.

Turning to `C[N+](C)(C)C1CCc2c(sc(NC(=O)Nc3ccc(Cl)cc3)c2C(N)=O)C1` (stereo not drawn) [Example 169, 3-Carbamoyl-2-[3-(4-chlorophenyl)ureido]-N,N,N-trimethyl-4,5,6,7-tetrahydrobenzo[b]thiophen-6-aminium iodide], the pEC50 was 5.00 to 6.00. For the same molecule, the Emax at 25 µM under setting [1] stood at 101%.
